According to ChEMBL document CHEMBL4665624, “Synthesis of 5-(4-(1H-phenanthro[9,10-d]imidazol-2-yl)benzylidene)thiazolidine-2,4-dione as promising DNA and serum albumin-binding agents and evaluation of antitumor activity” (Eur J Med Chem, 2019):

Tests used:
OVCAR-3 = assay: Antitumor activity against human OVCAR-3 cells assessed as cell growth inhibition at 10 uM incubated for 48 hrs by sulforhodamine B assay; format: functional; conditions: read-out: GI
RXF 393 = assay: Antitumor activity against human RXF 393 cells assessed as cell growth inhibition at 10 uM incubated for 48 hrs by sulforhodamine B assay; format: functional; conditions: read-out: GI
M14 = assay: Antitumor activity against human M14 cells assessed as cell growth inhibition at 10 uM incubated for 48 hrs by sulforhodamine B assay; format: functional; conditions: read-out: GI
SK-MEL-28 = assay: Antitumor activity against human SK-MEL-28 cells assessed as cell growth inhibition at 10 uM incubated for 48 hrs by sulforhodamine B assay; format: functional; conditions: read-out: GI
SF-268 = assay: Antitumor activity against human SF268 cells assessed as cell growth inhibition at 10 uM incubated for 48 hrs by sulforhodamine B assay; format: functional; conditions: read-out: GI
KM12 = assay: Antitumor activity against human KM12 cells assessed as cell growth inhibition at 10 uM incubated for 48 hrs by sulforhodamine B assay; format: functional; conditions: read-out: GI
NCI-H522 = assay: Antitumor activity against human NCI-H522 cells assessed as cell growth inhibition at 10 uM incubated for 48 hrs by sulforhodamine B assay; format: functional; conditions: read-out: GI
UO-31 = assay: Antitumor activity against human UO-31 cells assessed as cell growth inhibition at 10 uM incubated for 48 hrs by sulforhodamine B assay; format: functional; conditions: read-out: GI
MDA-MB-468 = assay: Antitumor activity against human MDA-MB-468 cells assessed as cell growth inhibition at 10 uM incubated for 48 hrs by sulforhodamine B assay; format: functional; conditions: read-out: GI
SN12C = assay: Antitumor activity against human SN12C cells assessed as cell growth inhibition at 10 uM incubated for 48 hrs by sulforhodamine B assay; format: functional; conditions: read-out: GI
IGROV-1 = assay: Antitumor activity against human IGROV1 cells assessed as cell growth inhibition at 10 uM incubated for 48 hrs by sulforhodamine B assay; format: functional; conditions: read-out: GI
OVCAR-4 = assay: Antitumor activity against human OVCAR-4 cells assessed as cell growth inhibition at 10 uM incubated for 48 hrs by sulforhodamine B assay; format: functional; conditions: read-out: GI
HL-60(TB) = assay: Antitumor activity against human HL-60(TB) cells assessed as cell growth inhibition at 10 uM incubated for 48 hrs by sulforhodamine B assay; format: functional; conditions: read-out: GI
MDA-MB-435 = assay: Antitumor activity against human MDA-MB-435 cells assessed as cell growth inhibition at 10 uM incubated for 48 hrs by sulforhodamine B assay; format: functional; conditions: read-out: GI
786-0 = assay: Antitumor activity against human 786-0 cells assessed as cell growth inhibition at 10 uM incubated for 48 hrs by sulforhodamine B assay; format: functional; conditions: read-out: GI
UACC-62 = assay: Antitumor activity against human UACC-62 cells assessed as cell growth inhibition at 10 uM incubated for 48 hrs by sulforhodamine B assay; format: functional; conditions: read-out: GI
MDA-MB-231 = assay: Antitumor activity against human MDA-MB-231/ATCC cells assessed as cell growth inhibition at 10 uM incubated for 48 hrs by sulforhodamine B assay; format: functional; conditions: read-out: GI
SR = assay: Antitumor activity against human SR cells assessed as cell growth inhibition at 10 uM incubated for 48 hrs by sulforhodamine B assay; format: functional; conditions: read-out: GI
BT-549 = assay: Antitumor activity against human BT-549 cells assessed as cell growth inhibition at 10 uM incubated for 48 hrs by sulforhodamine B assay; format: functional; conditions: read-out: GI
NCI-H226 = assay: Antitumor activity against human NCI-H226 assessed as cell growth inhibition at 10 uM incubated for 48 hrs by sulforhodamine B assay; format: functional; conditions: read-out: GI
K562 = assay: Antitumor activity against human K562 cells assessed as cell growth inhibition at 10 uM incubated for 48 hrs by sulforhodamine B assay; format: functional; conditions: read-out: GI
NCI/ADR-RES = assay: Antitumor activity against human NCI/ADR-RES cells assessed as cell growth inhibition at 10 uM incubated for 48 hrs by sulforhodamine B assay; format: functional; conditions: read-out: GI
Malme-3M = assay: Antitumor activity against human MALME-3M cells assessed as cell growth inhibition at 10 uM incubated for 48 hrs by sulforhodamine B assay; format: functional; conditions: read-out: GI
COLO 205 = assay: Antitumor activity against human COLO205 cells assessed as cell growth inhibition at 10 uM incubated for 48 hrs by sulforhodamine B assay; format: functional; conditions: read-out: GI
NCI-H23 = assay: Antitumor activity against human NCI-H23 cells assessed as cell growth inhibition at 10 uM incubated for 48 hrs by sulforhodamine B assay; format: functional; conditions: read-out: GI
CCRF-CEM = assay: Antitumor activity against human CCRF-CEM cells assessed as cell growth inhibition at 10 uM incubated for 48 hrs by sulforhodamine B assay; format: functional; conditions: read-out: GI
Hs-578T = assay: Antitumor activity against human HS 578T cells assessed as cell growth inhibition at 10 uM incubated for 48 hrs by sulforhodamine B assay; format: functional; conditions: read-out: GI
LOX IMVI = assay: Antitumor activity against human LOX IMVI cells assessed as cell growth inhibition at 10 uM incubated for 48 hrs by sulforhodamine B assay; format: functional; conditions: read-out: GI
MOLT-4 = assay: Antitumor activity against human MOLT4 cells assessed as cell growth inhibition at 10 uM incubated for 48 hrs by sulforhodamine B assay; format: functional; conditions: read-out: GI
ACHN = assay: Antitumor activity against human ACHN cells assessed as cell growth inhibition at 10 uM incubated for 48 hrs by sulforhodamine B assay; format: functional; conditions: read-out: GI
U-251 = assay: Antitumor activity against human U251 cells assessed as cell growth inhibition at 10 uM incubated for 48 hrs by sulforhodamine B assay; format: functional; conditions: read-out: GI
A498 = assay: Antitumor activity against human A498 cells assessed as cell growth inhibition at 10 uM incubated for 48 hrs by sulforhodamine B assay; format: functional; conditions: read-out: GI
HT-29 = assay: Antitumor activity against human HT-29 cells assessed as cell growth inhibition at 10 uM incubated for 48 hrs by sulforhodamine B assay; format: functional; conditions: read-out: GI
EKVX = assay: Antitumor activity against human EKVX cells assessed as cell growth inhibition at 10 uM incubated for 48 hrs by sulforhodamine B assay; format: functional; conditions: read-out: GI
HCT-116 = assay: Antitumor activity against human HCT116 cells assessed as cell growth inhibition at 10 uM incubated for 48 hrs by sulforhodamine B assay; format: functional; conditions: read-out: GI
SNB-19 = assay: Antitumor activity against human SNB-19 cells assessed as cell growth inhibition at 10 uM incubated for 48 hrs by sulforhodamine B assay; format: functional; conditions: read-out: GI
HOP-92 = assay: Antitumor activity against human HOP92 cells assessed as cell growth inhibition at 10 uM incubated for 48 hrs by sulforhodamine B assay; format: functional; conditions: read-out: GI
NCI-H460 = assay: Antitumor activity against human NCI-H460 assessed as cell growth inhibition at 10 uM incubated for 48 hrs by sulforhodamine B assay; format: functional; conditions: read-out: GI
RPMI-8226 = assay: Antitumor activity against human RPMI8226 cells assessed as cell growth inhibition at 10 uM incubated for 48 hrs by sulforhodamine B assay; format: functional; conditions: read-out: GI
SK-OV-3 = assay: Antitumor activity against human SK-OV-3 cells assessed as cell growth inhibition at 10 uM incubated for 48 hrs by sulforhodamine B assay; format: functional; conditions: read-out: GI
MCF7 = assay: Antitumor activity against human MCF7 cells assessed as cell growth inhibition at 10 uM incubated for 48 hrs by sulforhodamine B assay; format: functional; conditions: read-out: GI
SNB-75 = assay: Antitumor activity against human SNB-75 cells assessed as cell growth inhibition at 10 uM incubated for 48 hrs by sulforhodamine B assay; format: functional; conditions: read-out: GI
PC-3 = assay: Antitumor activity against human PC-3 cells assessed as cell growth inhibition at 10 uM incubated for 48 hrs by sulforhodamine B assay; format: functional; conditions: read-out: GI
SW-620 = assay: Antitumor activity against human SW620 cells assessed as cell growth inhibition at 10 uM incubated for 48 hrs by sulforhodamine B assay; conditions: SW-620, 48 h, read-out: GI
SF-295 = assay: Antitumor activity against human SF295 cells assessed as cell growth inhibition at 10 uM incubated for 48 hrs by sulforhodamine B assay; format: functional; conditions: read-out: GI
HCC 2998 = assay: Antitumor activity against human HCC2998 cells assessed as cell growth inhibition at 10 uM incubated for 48 hrs by sulforhodamine B assay; format: functional; conditions: read-out: GI
OVCAR-8 = assay: Antitumor activity against human OVCAR-8 cells assessed as cell growth inhibition at 10 uM incubated for 48 hrs by sulforhodamine B assay; format: functional; conditions: read-out: GI
HCT-15 = assay: Antitumor activity against human HCT15 cells assessed as cell growth inhibition at 10 uM incubated for 48 hrs by sulforhodamine B assay; format: functional; conditions: read-out: GI

CCN(CC)c1ccc(-c2nc3c4ccccc4c4ccccc4c3o2)c(O)c1 gave an inhibition of growth at 10 µM (OVCAR-3) of 10.3%, an inhibition of growth at 10 µM (RXF 393) of 16.6% and an inhibition of growth at 10 µM (M14) of 12.4%. For the same compound, the inhibition of growth at 10 µM (SK-MEL-28) was under 10%, the inhibition of growth at 10 µM (SF-268) was 12% and the inhibition of growth at 10 µM (KM12) was 55.6%. The inhibition of growth at 10 µM (NCI-H522) was 19.8%, the inhibition of growth at 10 µM (UO-31) was 35.2% and the inhibition of growth at 10 µM (MDA-MB-468) was 15.8%. For the same compound, the inhibition of growth at 10 µM (SN12C) was under 10%, the inhibition of growth at 10 µM (IGROV-1) was 19.2% and the inhibition of growth at 10 µM (OVCAR-4) was under 10%. It also gave an inhibition of growth at 10 µM (HL-60(TB)) of 31.4%, an inhibition of growth at 10 µM (MDA-MB-435) of under 10% and an inhibition of growth at 10 µM (786-0) of 12.2%. The inhibition of growth at 10 µM (UACC-62) was 11.2%, the inhibition of growth at 10 µM (MDA-MB-231) was 35.2% and the inhibition of growth at 10 µM (SR) was 72.4%. The inhibition of growth at 10 µM (BT-549) was under 10%, the inhibition of growth at 10 µM (NCI-H226) was under 10% and the inhibition of growth at 10 µM (K562) was 79.7%. The inhibition of growth at 10 µM (NCI/ADR-RES) was 11%, the inhibition of growth at 10 µM (Malme-3M) was under 10% and the inhibition of growth at 10 µM (COLO 205) was 12.8%. It also gave an inhibition of growth at 10 µM (NCI-H23) of 13.5%, an inhibition of growth at 10 µM (CCRF-CEM) of 41.4% and an inhibition of growth at 10 µM (Hs-578T) of 10%. It also gave an inhibition of growth at 10 µM (LOX IMVI) of 75.3%, an inhibition of growth at 10 µM (MOLT-4) of 39% and an inhibition of growth at 10 µM (ACHN) of 23.1%. The inhibition of growth at 10 µM (U-251) was 15.6%, the inhibition of growth at 10 µM (A498) was under 10% and the inhibition of growth at 10 µM (HT-29) was 64.3%. For the same compound, the inhibition of growth at 10 µM (EKVX) was 20.2%, the inhibition of growth at 10 µM (HCT-116) was 16.6% and the inhibition of growth at 10 µM (SNB-19) was under 10%. It also gave an inhibition of growth at 10 µM (HOP-92) of 11%, an inhibition of growth at 10 µM (NCI-H460) of 15% and an inhibition of growth at 10 µM (RPMI-8226) of 44.6%. The inhibition of growth at 10 µM (SK-OV-3) was under 10%, the inhibition of growth at 10 µM (MCF7) was 43.2% and the inhibition of growth at 10 µM (SNB-75) was under 10%. It also gave an inhibition of growth at 10 µM (PC-3) of 20.3%, an inhibition of growth at 10 µM (SW-620) of 31.4% and an inhibition of growth at 10 µM (SF-295) of under 10%. For the same compound, the inhibition of growth at 10 µM (HCC 2998) was 18.7%, the inhibition of growth at 10 µM (OVCAR-8) was 15% and the inhibition of growth at 10 µM (HCT-15) was 65.1%.
